Source: patent US9656953B2, “Inhibition of cell proliferation” (University of South Florida, priority 2005, dated 2017)
“Also recorded” adds a separate entry of the source.

Tests used:
[1] = system: Human aortic endothelial cells (HAECs); assay: Matrigel angiogenic tubule formation; assay type: cell-based; conditions: 20 μM
Protocol: Matrigel assays. […] A total of 100 μl of thawed Matrigel was added to 96-well tissue culture plates, followed by incubation at 37° C. for 60 minutes to allow polymerization. […] Capillary tube formation assessed by using a Leica DMIL phase contrast microscope.
An experiment was performed to determine whether angiogenic tubule formation could be inhibited by the disclosed compounds.

Rb:Raf-1 binding = target: T1, Rb:Raf-1 binding (Homo sapiens, UniProt P04049+P06400); assay: GST-Rb/GST-Raf-1 ELISA; conditions: concentration that inhibits the Rb:Raf-1 binding by 50%, triplicate; read-out: IC50 (nM), inhibition of the Rb:Raf-1 binding
T1 construct: a glutathione S-transferase (GST) Raf-1 (1-149aa) overnight at 4° C; made in house
T1 sequence (P04049 1-149 limits assumed): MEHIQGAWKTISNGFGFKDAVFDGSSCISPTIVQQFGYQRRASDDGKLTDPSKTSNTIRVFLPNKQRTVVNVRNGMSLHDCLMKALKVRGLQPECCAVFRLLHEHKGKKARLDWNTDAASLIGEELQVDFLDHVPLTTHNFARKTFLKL
T1 sequence (P06400 whole entry): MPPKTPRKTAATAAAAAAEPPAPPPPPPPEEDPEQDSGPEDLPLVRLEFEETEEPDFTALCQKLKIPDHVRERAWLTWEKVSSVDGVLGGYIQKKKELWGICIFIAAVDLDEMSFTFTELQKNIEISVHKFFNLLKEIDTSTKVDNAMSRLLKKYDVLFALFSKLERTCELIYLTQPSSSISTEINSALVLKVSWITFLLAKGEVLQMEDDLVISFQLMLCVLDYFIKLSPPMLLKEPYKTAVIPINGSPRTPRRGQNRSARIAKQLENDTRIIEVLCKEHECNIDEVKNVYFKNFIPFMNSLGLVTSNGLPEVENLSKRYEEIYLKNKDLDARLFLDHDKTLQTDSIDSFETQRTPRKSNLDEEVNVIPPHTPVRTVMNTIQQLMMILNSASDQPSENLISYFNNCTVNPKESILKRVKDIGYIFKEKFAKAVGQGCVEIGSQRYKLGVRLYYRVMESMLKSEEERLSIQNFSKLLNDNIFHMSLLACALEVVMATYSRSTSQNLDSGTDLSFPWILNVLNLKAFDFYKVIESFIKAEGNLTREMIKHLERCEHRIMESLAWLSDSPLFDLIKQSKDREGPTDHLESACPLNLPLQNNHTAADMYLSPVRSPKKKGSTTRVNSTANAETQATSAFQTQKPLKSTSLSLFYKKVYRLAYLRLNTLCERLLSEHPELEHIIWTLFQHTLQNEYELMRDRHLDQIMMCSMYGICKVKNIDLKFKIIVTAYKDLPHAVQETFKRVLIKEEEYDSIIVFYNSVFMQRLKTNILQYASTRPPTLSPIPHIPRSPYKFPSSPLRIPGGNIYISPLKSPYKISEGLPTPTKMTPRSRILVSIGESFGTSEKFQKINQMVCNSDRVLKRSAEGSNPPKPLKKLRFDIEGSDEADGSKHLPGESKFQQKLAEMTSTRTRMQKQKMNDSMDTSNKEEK
Protocol: In vitro library screening assays. Enzyme Linked ImmunoSorbent Assay (ELISA) 96-well plates were coated with 1 μg/mL of a glutathione S-transferase (GST) Raf-1 (1-149aa) overnight at 4° C. Subsequently the plates were blocked and GST Rb at 20 μg/mL was rotated at room temperature (RT) for 30 minutes in the presence or absence of the compounds at 20 micromolar (μM). GST-Rb +/− compounds were then added to the plate and incubated for 90 minutes (min) at 37° C. The amount of Rb bound to Raf-1 was detected by Rb polyclonal antibody (Santa Cruz Biotechnology, Santa Cruz, Calif.) 1:1000 incubated for 60 min at 37° C. Donkey-anti-rabbit-IgG-HRP (1:10,000) was added to the plate and incubated at 37° C. for 60 minutes. The color was developed with orthophenylenediamine (Sigma, St. Louis, Mo.) and the reaction was terminated with 3 molar (M) H2SO4. Absorbance was read at 490 nanometers (nm). To determine disruption of Rb to E2F1, Phb, or HDAC1 the above protocol was used with the exception of coating GST Rb on the ELISA plate and adding the drugs in the presence or absence of GST E2F1, Phb, or HDAC1. […] Prohibitin monoclonal antibody was used at 1:1000 to detect the amount of Rb bound to Prohibitin. For disruption of MEK-Raf-1 binding ELISAs, Raf-1 1 microgram/milliliter (μg/mL) was coated on the plate and GST-MEK (20 μg/mL) was incubated +/− the compounds for 30 minutes at room temperature. Mek1 polyclonal antibody was used at 1:1000 to detect the binding of Raf-1 to Mek1. The IC50 concentrations for the Rb:Raf-1 inhibitors were determined by plotting with Origin 7.5 software (Origin, Northampton, Mass.).
A screen was developed to identify small molecule inhibitors of the Rb:Raf-1 interaction. A diversity set, comprising 1981 compounds (National Cancer Institute, Bethesda, Md.) was examined using a glutathione S-transferase-retinoblastoma/glutathione S-transferase-Raf-1 kinase Enzyme-Linked ImmunoSorbent Assay screen (GST-Rb/GST-Raf-1 ELISA).

H1650 tumors = assay: H1650 xenograft in nude mice; assay type: in vivo
PANC1 cells = assay: Soft agar assay, PANC1; assay type: cell-based
Protocol: Soft Agar Assay. Soft agar assays were done in triplicate in 12-well plates (Corning, Corning N.Y.). First, the bottom layer of agar (0.6%) was allowed to solidify at room temperature. Next the top layer of agar was (0.3%) was mixed with 5,000 cells per well and the indicated drug. The drugs were added twice weekly in complete media to the agar wells. Colonies were quantified by staining with MTT (3-(4,5-Dimethylthiazol-2-yl)-2,5-diphenyltetrazolium bromide) 1 mg/mL for 1 hour at 37° C.
Experiments were also carried out to examine the effect of 3a in inhibiting the adherence-independent growth of cancer cells in soft agar.

A549-sh8 tumors = assay: A549-sh8 (Rb shRNA) xenograft in nude mice; assay type: in vivo; conditions: 150 mpk orally
Protocol: Animal Studies. Nude mice (Charles River, Wilminton, Mass., USA) were maintained in accordance with Institutional Animal Care and Use Committee (IAUCUC) procedures and guidelines. A549 cells were harvested and resuspended in PBS, and then injected s.c. into the right and left flanks (10×10^6 cells per flank) of 8-week old female nude mice as reported previously (Sun 99). When tumors reached about 100-200 mm^3, animals were dosed intraperitoneally i.p. or orally by gavage with 0.1 mL solution once daily. Control animals received a vehicle, whereas treated animals were given 3a or RRD-238a at the indicated doses. The tumor volumes were determined by measuring the length (l) and the width (w) and calculating the volume (V=lw^2/2) as described previously (Sun 99). Statistical significance between control and treated animals were evaluated using Student's t-test.
Athymic nude mice were implanted with 1×10^7 A549 cells bilaterally and the tumors were allowed to reach 200 mm^3 in size before treatment began. […] Furthermore, to examine whether 3a could affect the growth of tumors lacking Rb in vivo, sh6 and sh8 (shRNA for Rb) cell lines were implanted into the flanks of nude mice. The mice were given 3a orally at 150 mpk and the control groups were administered the vehicle.

Raf-1 = target: T2, Raf-1 (Homo sapiens, UniProt P04049); assay: In vitro kinase assay, Raf-1; assay type: biochemical
T2 construct: purchased Upstate Signaling, Charlottesville, Va; (Raf-1); QED Bioscience, San Diego, Calif; (Rb)
T2 sequence (P04049 whole entry): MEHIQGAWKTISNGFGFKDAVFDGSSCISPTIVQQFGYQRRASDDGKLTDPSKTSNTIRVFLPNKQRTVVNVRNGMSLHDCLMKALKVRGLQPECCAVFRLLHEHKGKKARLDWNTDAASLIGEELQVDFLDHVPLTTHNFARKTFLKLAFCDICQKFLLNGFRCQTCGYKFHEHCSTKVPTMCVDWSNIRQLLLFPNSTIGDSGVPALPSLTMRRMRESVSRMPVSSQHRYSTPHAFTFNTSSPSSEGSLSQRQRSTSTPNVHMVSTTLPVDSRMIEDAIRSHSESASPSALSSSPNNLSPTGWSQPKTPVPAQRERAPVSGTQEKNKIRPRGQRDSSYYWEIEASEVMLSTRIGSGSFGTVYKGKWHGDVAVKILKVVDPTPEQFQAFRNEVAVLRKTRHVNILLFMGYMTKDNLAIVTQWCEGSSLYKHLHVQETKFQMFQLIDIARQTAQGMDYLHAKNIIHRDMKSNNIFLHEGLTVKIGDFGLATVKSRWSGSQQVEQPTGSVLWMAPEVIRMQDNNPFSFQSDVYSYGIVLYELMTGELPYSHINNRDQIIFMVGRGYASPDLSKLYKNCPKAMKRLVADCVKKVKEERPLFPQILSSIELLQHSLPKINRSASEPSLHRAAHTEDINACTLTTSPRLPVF
Protocol: In vitro kinase assay. The kinase reaction for Raf-1 was carried out with 100 nanograms (ng) of Raf-1 (Upstate Signaling, Charlottesville, Va.), 0.5 μg of full-length Rb protein (QED Bioscience, San Diego, Calif.) as the substrate, 10 μM ATP, 10 μCi of [γ-^32P] ATP in the kinase assay buffer in the presence or absence of the drugs at 30° C. for 30 minutes. Cyclin D and E kinase assays are described in (Dasgupta 2004).

Rb binding to E2F1 = target: T3, Rb binding to E2F1 (Homo sapiens, UniProt P06400+Q01094); assay: IP-western, A-549 cells, Rb-E2F1; assay type: cell-based
T3 construct: endogenous in cells; host or cells: A549
T3 sequence (P06400 whole entry): as the sequence (P06400 whole entry) above
T3 sequence (Q01094 whole entry): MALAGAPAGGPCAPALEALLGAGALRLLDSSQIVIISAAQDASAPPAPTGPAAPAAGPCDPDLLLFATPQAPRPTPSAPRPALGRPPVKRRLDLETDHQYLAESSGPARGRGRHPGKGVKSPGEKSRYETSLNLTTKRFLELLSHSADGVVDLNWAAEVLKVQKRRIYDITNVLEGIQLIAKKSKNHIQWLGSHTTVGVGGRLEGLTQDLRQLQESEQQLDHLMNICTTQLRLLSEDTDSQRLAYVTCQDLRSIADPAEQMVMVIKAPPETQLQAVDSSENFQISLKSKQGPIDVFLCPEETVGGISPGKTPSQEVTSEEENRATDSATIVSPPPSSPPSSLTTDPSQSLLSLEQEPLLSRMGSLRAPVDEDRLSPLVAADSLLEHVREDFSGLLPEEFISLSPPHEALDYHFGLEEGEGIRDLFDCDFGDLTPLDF
Text: Lysate preparation, pmmunoprecipitation, and pestern plotting.

[2] = system: U251MG glioblastoma cell line; assay: BrdU incorporation, S-phase entry, U251MG; assay type: cell-based; conditions: null for p16 and PTEN
Protocol: Proliferation assays. Bromodeoxyuridine (BrdU) labeling kits were obtained from Roche Biochemicals (Indianapolis, Ind.). Cells were plated in poly-D-lysine coated chamber slides at a density of 10,000 cells per well and rendered quiescent by serum starvation for 24 hours. Cells were then re-stimulated with serum in the presence or absence of the indicated drugs for 18 h. S-phase cells were visualized by microscopy and quantitated by counting 3 fields of 100 in quadruplicate.

## Cl.N=C(N)SCc1ccc(Cl)cc1Cl [Compound 3a]
[1]
  angiogenic tubule formation in matrigel: inhibit angiogenic tubule formation; also recorded: significantly inhibited the angiogenic tubule formation
Rb:Raf-1 binding
  IC50: 77 nM
H1650 tumors; 50 mpk i.p.
  H1650 tumor growth in words: inhibited H1650 xenograft tumor growth; also recorded: inhibited the growth of these tumors significantly
H1650 tumors; 50 mpk/day i.p., vehicle 2185±326 mm^3
  tumor size, H1650 xenograft: 557±76 mm3
PANC1 cells
  adherence-independent growth in soft agar, PANC1: significantly inhibited the growth
A549-sh8 tumors
  tumor growth, A549-sh8 tumors lacking Rb: unable to inhibit tumor growth; also recorded: did not respond
Raf-1
  Raf-1 kinase activity: does not inhibit; also recorded: did not affect the kinase activities
Rb binding to E2F1
  Rb binding to E2F1: not affected
[2]
  S-phase entry, U251MG: inhibited S-phase entry
